This is an account of results in PubChem BioAssay (NCI).

Test systems include HCC-2998 colon; T-47D breast; RPMI-8226 leukemia; HT29 colon; OVCAR-4 ovarian; 786-0 renal; SNB-19 CNS; MOLT-4 leukemia; CAKI-1 renal; MDA-MB-231 breast.
Assay in all cases: DTP human tumour cell line panel, 48 h

Several values for one entry are separate records, joined by “and”; a condition that tells them apart may be missing. Equal values may be shown once.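 Growth conditions: 96-well plates. Treatment: test compound, 48 hours, 5 concentrations. Analysis: linear interpolation between bracketing concentrations; unreached endpoints set to highest concentration. Here, GI50 denotes the concentration required for 50% inhibition of growth. At the TGI there is no net growth.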

The GI50 is the concentration that inhibits growth by half. Broadly, the TGI is the concentration giving total growth inhibition. For the compound `COc1ccc(Cn2cc3c(c2-c2cc(OC)c(OC)c(OC)c2)CCc2cnoc2-3)cc1N`, the GI50 in the experiment with HCC-2998 colon was 88.2 nM; in the experiment with T-47D breast it was 34 nM; in the experiment with RPMI-8226 leukemia, 48.9 nM; in the experiment on HT29 colon, 307 nM; in the experiment on OVCAR-4 ovarian, 103 nM; with 786-0 renal, 59.9 nM. Further, the GI50 is 62.1 nM with SNB-19 CNS, 64.8 nM with MOLT-4 leukemia, 31.9 nM in the experiment on CAKI-1 renal and 158 nM in the experiment on MDA-MB-231 breast. For the same compound, the TGI with HCC-2998 colon was over 42000 nM; in the experiment on T-47D breast it was over 100000 nM; in the experiment on HT29 colon, 1710 nM; in the experiment with OVCAR-4 ovarian, over 100000 nM; in the experiment with 786-0 renal it was over 23200 nM; in the experiment on SNB-19 CNS, over 100000 nM. Also, the total growth inhibition concentration (TGI) in the experiment on MOLT-4 leukemia is over 45900 nM; in the experiment with CAKI-1 renal, over 100000 nM; in the experiment on MDA-MB-231 breast, over 100000 nM.

For the compound `NS(=O)(=O)c1ccc(-n2ncc3c(Nc4ccccc4)ncnc32)cc1`, the GI50 in the experiment with HCC-2998 colon is 16600 nM; in the experiment on T-47D breast, 24200 nM; in the experiment on RPMI-8226 leukemia, 15300 nM; in the experiment on HT29 colon it was 3330 nM; in the experiment with OVCAR-4 ovarian, 32100 nM; in the experiment on 786-0 renal, 18300 nM. The GI50 is over 100000 nM in the experiment on SNB-19 CNS, 14500 nM with MOLT-4 leukemia, 23700 nM in the experiment with CAKI-1 renal and 15000 nM in the experiment on MDA-MB-231 breast. Moreover, the concentration for total growth inhibition (TGI) in the experiment on HCC-2998 colon was 57700 nM; in the experiment on T-47D breast, over 100000 nM; with RPMI-8226 leukemia, 76600 nM; with HT29 colon it was 15700 nM; in the experiment on OVCAR-4 ovarian it was over 100000 nM; with 786-0 renal, 55700 nM. The TGI in the experiment with SNB-19 CNS was over 100000 nM; with MOLT-4 leukemia, 61400 nM; with CAKI-1 renal it was over 100000 nM; with MDA-MB-231 breast, 87100 nM.

In the case of `COc1cccc(CCC(=O)c2cc3c(N)c(C(=O)Nc4cccc(Cl)c4C)sc3nc2C)c1`, the GI50 in the experiment on HCC-2998 colon was 2180 nM; in the experiment with T-47D breast it was 588 nM; in the experiment with RPMI-8226 leukemia, 819 nM; in the experiment on HT29 colon it was 338 nM; in the experiment with OVCAR-4 ovarian, 1560 nM; with 786-0 renal, 530 nM. The GI50 was 523 nM in the experiment with SNB-19 CNS, 770 nM in the experiment with MOLT-4 leukemia, 535 nM with CAKI-1 renal and 1400 nM in the experiment on MDA-MB-231 breast. For the same compound, the TGI in the experiment on HCC-2998 colon was over 50800 nM; in the experiment on T-47D breast it was over 100000 nM; in the experiment with RPMI-8226 leukemia, over 100000 nM; in the experiment on OVCAR-4 ovarian, over 100000 nM; with 786-0 renal it was over 100000 nM; in the experiment on SNB-19 CNS, over 100000 nM. Further, the values for the total growth inhibition concentration (TGI) with MOLT-4 leukemia, in the experiment on CAKI-1 renal and in the experiment with MDA-MB-231 breast were over 100000 nM, over 100000 nM and over 78600 nM, respectively.

Take `COc1cc(C2CC(=O)Nc3c2ccc2ccccc32)cc(Br)c1OC` (centres undefined): the GI50 with HCC-2998 colon was 840 nM; in the experiment on T-47D breast it was 811 nM; in the experiment on RPMI-8226 leukemia it was 562 nM; in the experiment on HT29 colon it was 370 nM; in the experiment on OVCAR-4 ovarian it was 3640 nM; in the experiment with 786-0 renal, 569 nM. The GI50 in the experiment on SNB-19 CNS was 11700 nM; with MOLT-4 leukemia, 450 nM; in the experiment on CAKI-1 renal, 375 nM; in the experiment with MDA-MB-231 breast, 2830 nM. Further, the TGI was over 29900 nM in the experiment with HCC-2998 colon; over 100000 nM with T-47D breast; 24100 nM in the experiment on RPMI-8226 leukemia; 18200 nM in the experiment on HT29 colon; over 100000 nM in the experiment on OVCAR-4 ovarian; over 39300 nM in the experiment with 786-0 renal. In addition, the TGI was over 100000 nM with SNB-19 CNS, 12400 nM in the experiment with MOLT-4 leukemia, over 100000 nM in the experiment with CAKI-1 renal and over 46700 nM in the experiment with MDA-MB-231 breast.

Take `Cc1ncc(C(=O)Nc2ccc(CN3CCN(C)CC3)c(C(F)(F)F)c2)cc1C#Cc1c(N)ncc2ccccc12`: the GI50 is 446 nM in the experiment with HCC-2998 colon; 1960 nM in the experiment with T-47D breast; 396 nM in the experiment with RPMI-8226 leukemia; 97.8 nM in the experiment with HT29 colon; 515 nM in the experiment on OVCAR-4 ovarian; 568 nM with 786-0 renal. The GI50 with SNB-19 CNS was 591 nM; in the experiment on MOLT-4 leukemia it was 228 nM; in the experiment on CAKI-1 renal it was 648 nM; in the experiment with MDA-MB-231 breast, 163 nM. Also, the TGI worked out at 899 nM in the experiment on HCC-2998 colon; 7700 nM in the experiment with T-47D breast; 1260 nM with RPMI-8226 leukemia; 585 nM in the experiment with HT29 colon; 2080 nM in the experiment on OVCAR-4 ovarian; 1050 nM with 786-0 renal. Besides, the TGI turned out to be 1060 nM in the experiment on SNB-19 CNS, 836 nM with MOLT-4 leukemia, 2350 nM in the experiment on CAKI-1 renal and 650 nM with MDA-MB-231 breast.

As to `CC(C)C[C@H](NC(=O)[C@@H](NC(=O)c1cccc(-c2ccccc2)n1)[C@@H](C)O)B(O)O`, the GI50 in the experiment with HCC-2998 colon is 5.17 nM and 11.6 nM; in the experiment with T-47D breast it was 5.06 nM; with HT29 colon, 3.96 nM; in the experiment on OVCAR-4 ovarian, 12.4 nM and 18.5 nM; with 786-0 renal, 12 nM and 14.7 nM; with SNB-19 CNS it was 616 nM and 106 nM. Also, the GI50 with MOLT-4 leukemia was 2.89 nM; with CAKI-1 renal, 14.6 nM and < 17.4 nM; with MDA-MB-231 breast, 4.85 nM and 19.1 nM. Besides, the TGI in the experiment with HCC-2998 colon is 17.1 nM and 18.9 nM; in the experiment with T-47D breast, 23.1 nM; in the experiment on RPMI-8226 leukemia, under 10.8 nM; with HT29 colon, 23.3 nM and 46 nM; in the experiment with OVCAR-4 ovarian, 79000 nM; with SNB-19 CNS it was over 52400 nM. The compound further showed a TGI with MOLT-4 leukemia of 8.87 nM.

Turning to `Cn1cnc2c(F)c(Nc3ccc(Br)cc3F)c(C(=O)NOCCO)cc21`, the GI50 in the experiment on HCC-2998 colon is 16.2 nM and 34 nM; with T-47D breast, over 100000 nM; in the experiment on RPMI-8226 leukemia, over 56400 nM; in the experiment with HT29 colon it was 26.3 nM and 31.6 nM; in the experiment on OVCAR-4 ovarian it was 8060 nM; in the experiment with 786-0 renal, over 100000 nM. In addition, the GI50 with SNB-19 CNS is 4370 nM; in the experiment with MOLT-4 leukemia, over 100000 nM; in the experiment on CAKI-1 renal, 5940 nM; in the experiment on MDA-MB-231 breast it was 111 nM and 837 nM. Further, the TGI with HCC-2998 colon is 4510 nM; in the experiment with T-47D breast it was over 100000 nM; in the experiment with RPMI-8226 leukemia, over 100000 nM; in the experiment on HT29 colon, over 100000 nM; with OVCAR-4 ovarian, over 100000 nM; in the experiment on 786-0 renal, over 100000 nM. In addition, the TGI in the experiment with SNB-19 CNS, with MOLT-4 leukemia, in the experiment on CAKI-1 renal and in the experiment with MDA-MB-231 breast was over 100000 nM in each case.
